Source: publication PMC4624771, “Oriented Cell Division in the C. elegans Embryo Is Coordinated by G-Protein Signaling Dependent on the Adhesion GPCR LAT-1” (PLoS Genetics, 2015)

Tests used:
lat-1(ok1465) nematodes = experiment: Lethality rescue assay in lat-1 mutant nematodes; assay type: in vivo; conditions: L4 larvae and subsequently embryos incubated; forskolin 80 μM, IBMX 10 mM, 8-Br-cAMP 0.25 mM
Source text: Fig 2 Division plane defects in lat-1 mutant embryos are rescued by elevation of intracellular cAMP via a Gs protein/adenylyl cyclase pathway. […] In wild-type embryos treated with the RNAi control vector L4440 ABal divides in an anterior-posterior direction (A) whereas in treated lat-1 mutants the division plane is almost perpendicular to MS (B). gsa-1 RNAi by feeding over two generations leads to a turning of the F2 ABal division plane in a direction similar to that in lat-1 mutants (C). F2 lat-1; gsa-1(RNAi) embryos show a similar ABal division plane to lat-1 mutants (D). (E) Cell division plane angles of ABal relative to MS after knockdown of gsa-1. […] The vector L4440 served as negative control. Data are shown as means ± SD. * p < 0.05; *** p < 0.001; n ≥ 11. (F) cAMP levels are reduced in lat-1 embryos compared to a control wild-type population. cAMP levels were measured after lysis (15 μg protein) by cAMP accumulation assay. Assays were performed in three independent experiments, data are given as means ± SD. ** p < 0.01. (G) Rescue of developmental lethality in lat-1 nematodes treated with compounds promoting cAMP accumulation: forskolin (80 μM), IBMX (10 mM) and 8-Br-cAMP (0.25 mM). Mothers and subsequently offspring of wild-type and lat-1 individuals were incubated and individuals reaching adulthood were scored (n = 410). As controls, nematodes were incubated in solvent without drug (mock). Data are shown as means ± SD. * p < 0.05; ** p < 0.01; *** p < 0.001. (H) Forskolin increases cAMP levels in C. elegans embryos and adults. lat-1 mutants and subsequently embryos were incubated with 80 μM forskolin. […] As controls, nematodes were treated with 0.8% DMSO lacking forskolin (mock). Basal cAMP levels of mock control are: 0.70 ± 0.14 nM (wild-type embryos); 0.37 ± 0.19 nM (lat-1 embryos); 1.9 ± 0.7 nM (wild-type adults); 2.3 ± 0.8 nM (lat-1 adults). Assays were performed in three independent experiments, data are given as means ± SD. * p < 0.05; ** p < 0.01; *** p < 0.001. (I-L) Relative positions of ABala, ABalp, and MS in an AB^4 embryo. Schematic representation (top) and DIC microscopy (bottom), scale bars = 10 μm. In wild-type embryos (I) and embryos incubated in 80 μM forskolin for 120 minutes (K) ABal divides in an anterior-posterior direction with only ABalp forming an interface with MS. In lat-1 mutants the division plane is skewed resulting in ABala and ABalp contacting MS (J). lat-1 embryos treated with 80 μM forskolin for 120 minutes display wild-type division and cell interfaces (L). (M) Arrangement of blastomeres in the 12-cell stage embryo. […] The right-hand side is two views of the mean positions of the blastomeres. The spheres are enlarged to convey an impression of the contacts. Forskolin turns the ABal spindle in the mutant in a more anterior direction. (N) Cell division plane angles of ABal relative to MS of untreated wild-type/lat-1 controls and wild-type/lat-1 embryos after incubation of mothers and subsequently embryos for 48 hours in 80 μM forskolin. Upon forskolin treatment, mutant embryos display a wild-type division angle. As controls, nematodes were treated with 0.8% DMSO lacking forskolin (mock). Data are shown as average angles ± SD, *** p < 0.001; n ≥ 12. (O) Forskolin reduces the contact length of ABala to MS. Ratio of relative contact lengths of ABala to MS and ABalp to MS cells lat-1 embryos untreated (control, n = 10) and after incubation of mothers and subsequently embryos for 48 hours in 80 μM forskolin (n = 11). […] Data were calculated from pixel analyses utilizing DIC images and are shown as means ± SD, ** p < 0.01.
All compounds were obtained from Sigma Aldrich. Forskolin was dissolved in DMSO to 10 mM, 3-isobutyl-1-methylxanthine (IBMX) in Dent´s buffer to 10 mM, 8-bromoadenosine 3′,5′-cyclic monophosphate (8-Br-cAMP) in 1 N ammonium hydroxide to 250 mM and 2',5'-dideoxyadenosine (ddA) was diluted in DMSO to 100 mM prior to final dilution in Dent´s buffer. […]

LAT-1 = experiment: Peptide-stimulated cAMP accumulation assay, lat-1-transfected COS-7 cells; assay type: cell-based, C. elegans; conditions: 1 mM peptide; for agonistic activity at LAT-1 in vitro (cAMP levels), in words: lat-1-transfected COS-7 cells, cAMP accumulation assay
Source text: Fig 3 An agonistic sequence C-terminal of the GPS cleavage site activates LAT-1 in vitro. (A) Evolutionary conservation of the putative agonistic region C-terminal of the GPCR proteolytic site (GPS) cleavage site in different latrophilin homologs. The GPS is part of the GPCR-autoproteolysis inducing (GAIN) domain, a characteristic feature of most aGPCRs which is located N-terminal of the first transmembrane domain (TM1). Sequences were retrieved from NCBI/GenBank and aligned utilizing Jalview 2 [36]. (B, F) Peptide-stimulated cAMP response of LAT-1 (B) and rat LPHN1 (F). COS-7 cells transfected with 0.2 μg empty control vector (pcDps) or plasmid encoding the latrophilin homolog, respectively, were stimulated with 1 mM peptide and cAMP levels were measured by cAMP accumulation assay. A mutated peptide served as negative control (CMP12/RMP13). […] Basal cAMP levels (empty vector, no peptide) are 5.3 ± 1.3 nM. Data are given as means ± SD of five independent experiments, each performed in triplicate. * p < 0.05; ** p < 0.01. (C) LPHN1 is expressed in COS-7 cells. Cells were transfected with 500 ng/well of empty vector (pcDps) or plasmid encoding either rat LPHN1, human P2Y12, or human V2R. […] Expression of the human vasopressin type 2 receptor V2R is shown as a comparison. The non-specific OD value (empty vector) was 0.06 ± 0.03 (set 0%) and the OD value of P2Y12 was 1.28 ± 0.12 (set 100%). Data are given as means ± SD of at least three independent experiments. *** p < 0.001. […] To analyze functional Gi coupling, the chimeric Gαqi4 protein was applied to reroute a potential Gi-protein pathway to the […]. For each assay, 1.5 μg/well of plasmid encoding LPHN1 was transfected (for Gi-protein coupling, co-transfection with 100 ng of chimeric Gαqi4 protein was performed). No activation of any of the signaling pathway was observed. Basal IP levels are: 220 ± 34 CPM/well (empty vector); 234 ± 39 CPM/well (empty vector + Gαqi4). Data are given as means ± SD of three independent experiments, each performed in triplicate. n.s. not significant. (E) LPHN1 couples to Gαs. COS-7 cells were transfected with increasing amounts of empty control vector (pcDps) or plasmid encoding either rat LPHN1, human V2R or human P2Y12, and cAMP levels were measured after 48 hours. cAMP concentrations are shown as fold change over empty control vector, basal cAMP levels: 6.2 ± 2.3 nM (200 ng); 6.1 ± 2.5 nM (300 ng); 5.1 ± 2.6 nM (400 ng); 6.1 ± 4.5 nM (500 ng). The Gs-protein coupling V2R served as positive and the predominantly Gi-protein coupling P2Y12 as negative control. Data are given as means ± SD of three independent experiments, each performed in triplicate. *** p < 0.001.
For functional assays, COS-7 cells were transiently transfected. To determine total as well as cell surface expression of receptors carrying N-terminal HA and C-terminal FLAG tags, indirect cellular enzyme-linked immunosorbent assays (ELISA) were employed. cAMP concentrations were measured using the ALPHAScreen cAMP assay kit (PerkinElmer Life Sciences) according to the manufacturer's protocol. IP formation was determined as previously described. Assay data was analyzed with GraphPad Prism version 5.0 (GraphPad Software). Statistics were performed using a two-way ANOVA in combination with Bonferroni as post-hoc test. For details see Supporting Experimental Procedures.
COS-7 cells were grown in Dulbecco's Modified Eagle Medium (DMEM) supplemented with 10% fetal bovine serum, 100 U/ml penicillin and 100 μg/ml streptomycin at 37°C and 5% CO2 in a humidified atmosphere. […]

[1] = system: lat-1 mutant nematodes expressing lat-1 with a lat-2 GPS; experiment: Peptide-mediated rescue of lethality in lat-1 mutants expressing lat-1 with a lat-2 GPS; assay type: in vivo, C. elegans; conditions: mothers and subsequently offspring soaked in 0.1 mM peptide, n ≥ 350
Description: Fig 4 The agonistic sequence of LAT-1 triggers receptor function in vivo. (A) Domain architecture of LAT-1 with an exchange of the GPS for the LAT-2 GPS. (B) Peptide-mediated rescue of lethality in lat-1 mutant nematodes expressing lat-1 with a lat-2 GPS. Mothers and subsequently offspring were soaked in 0.1 mM of peptide and individuals reaching adulthood were scored (n ≥ 350). […] Negative controls: mutated peptide CMP12 and a peptide derived from rat LPHN1 (RP13). Data are shown as means ± SD, **p<0.01; ***p<0.001. (C) Transgenically expressed lat-1 ^T530A/F532A::gfp exclusively rescues fertility defects of lat-1 mutants. Nematodes expressing lat-1 ^T530A/F532A::gfp in a lat-1 mutant background display lethality but no fertility defects compared to a lat-1::gfp transgenic control. (D) Expression and protein localization of lat-1::gfp (top) is indistinguishable from lat-1 ^T530A/F532A::gfp (bottom). Arrows indicate expression.
All compounds were obtained from Sigma Aldrich. Forskolin was dissolved in DMSO to 10 mM, 3-isobutyl-1-methylxanthine (IBMX) in Dent´s buffer to 10 mM, 8-bromoadenosine 3′,5′-cyclic monophosphate (8-Br-cAMP) in 1 N ammonium hydroxide to 250 mM and 2',5'-dideoxyadenosine (ddA) was diluted in DMSO to 100 mM prior to final dilution in Dent´s buffer. Peptides were synthesized (see Supporting Experimental Procedures) and dissolved in DMSO to 100 mM prior to final dilution in M9. Worms were incubated in 80 μM forskolin, 10 mM IBMX, 0.25 mM 8-Br-cAMP, 1 mM ddA or 0.1 mM peptide solution, respectively, containing E. coli OP50.
The lethality rescue assay was conducted as previously described. Fifty L4 hermaphrodites were transferred into wells of a 72-well flat-bottom Terasaki plates (Greiner Bio-One) containing OP50 and allowed to lay eggs for 24 hours at 22°C. Five to ten eggs were transferred into fresh wells with corresponding solutions and incubated at 22°C. The number of dead/surviving embryos was scored 24 hours later, the number of adult animals 48 hours later on an inverted microscope. Data were examined with an unpaired two-tailed t test for each genotype and condition.

Compound | effect on embryonic lethality of lat-1 worms, in words (lat-1(ok1465) nematodes) | agonistic activity at LAT-1 in vitro (cAMP levels), in words (LAT-1) | rescue of tissue polarity phenotype / activity in vivo, in words [1] | increase of cAMP concentration above basal levels (LAT-1; lat-1-transfected COS-7 cells (0.2 μg plasmid), ALPHAScreen cAMP assay, means of five independent experiments, each in triplicate) [fold] | rescue of lethality (individuals reaching adulthood) ([1]; means ± SD, untreated controls 26 ± 7%) [%]
Nc1ncnc2c1nc(Br)n2[C@@H]1O[C@@H]2COP(=O)(O)O[C@H]2[C@H]1O [8-Br-cAMP, 8-bromoadenosine 3′,5′-cyclic monophosphate] | amelioration of embryonic lethality | – | – | – | –
CC(C)Cn1c(=O)n(C)c(=O)c2[nH]cnc21 [IBMX, 3-isobutyl-1-methylxanthine] | amelioration of embryonic lethality | – | – | – | –
CMP12: CP12-derived peptide with positions +1 (T530) and +3 (F532) mutated to alanine (AHAAVLMDVRGH) | – | did not display any activity | not display any activity in vivo | – | –
CP9: peptide comprising the LAT-1 sequence C-terminal of the GPS cleavage site (THFAVLMDV) | – | no agonistic activity in vitro | not display any activity in vivo | – | –
CP10: peptide comprising the LAT-1 sequence C-terminal of the GPS cleavage site (THFAVLMDVR) | – | no agonistic activity in vitro | not display any activity in vivo | – | –
CP12: peptide of 12 amino acids comprising the LAT-1 sequence C-terminal of the GPS cleavage site (THFAVLMDVRGH) | – | increased cAMP levels | efficiently rescued | 1.6 | –
CP13: peptide of 13 amino acids comprising the LAT-1 sequence C-terminal of the GPS cleavage site (THFAVLMDVRGHD) | – | increased cAMP levels | efficiently rescued | – | 46 ± 12
CP14: peptide comprising the LAT-1 sequence C-terminal of the GPS cleavage site (THFAVLMDVRGHDL) | – | no agonistic activity in vitro | not display any activity in vivo | – | –
